Experimental findings from article PMC3932302 (Clinical cancer research : an official journal of the …, 2013) are described below.

Holding throughout (format): cell-based
For experiment [1], the target named is T1, organic cation transporter 1 (OCT1) (Homo sapiens, UniProt O15245).
T1 sequence (O15245 1-554): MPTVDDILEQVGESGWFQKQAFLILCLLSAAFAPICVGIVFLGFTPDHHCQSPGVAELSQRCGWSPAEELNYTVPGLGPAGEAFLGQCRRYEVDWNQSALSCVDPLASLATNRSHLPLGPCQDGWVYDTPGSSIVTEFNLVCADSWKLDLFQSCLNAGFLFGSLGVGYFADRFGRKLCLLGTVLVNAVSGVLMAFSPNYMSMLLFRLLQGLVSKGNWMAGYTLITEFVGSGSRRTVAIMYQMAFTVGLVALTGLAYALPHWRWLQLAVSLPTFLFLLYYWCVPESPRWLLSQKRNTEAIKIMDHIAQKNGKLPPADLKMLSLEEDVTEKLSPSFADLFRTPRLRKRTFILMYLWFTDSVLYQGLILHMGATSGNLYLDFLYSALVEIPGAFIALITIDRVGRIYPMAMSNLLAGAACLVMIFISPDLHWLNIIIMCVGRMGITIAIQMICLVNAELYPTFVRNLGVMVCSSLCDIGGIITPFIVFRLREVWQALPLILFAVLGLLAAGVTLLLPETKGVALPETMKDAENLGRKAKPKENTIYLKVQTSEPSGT
The experiment is described as follows: inhibition of TEA uptake into OCT1-expressing cells at […]. Particulars: read-out: % inhibition at 50 μmol/L.

Experiment [2] deals with T1, organic cation transporter 1 (OCT1). The experiment is described as follows: inhibition of […]TEA uptake into HEK-OCT1 cells at […].
For experiment [3] the target is unchanged.

The structures appear in SMILES notation.

On to `Cc1ccc(NC(=O)c2ccc(CN3CCNCC3)cc2)cc1Nc1nccc(-c2cccnc2)n1` [N-desmethyl imatinib], for which, in experiment [1], the inhibition at 50 µM was 90.7 ± 1%.

Turning to `CCN1/C(=C/c2ccc3ccccc3[n+]2CC)C=Cc2ccccc21` [decynium22], the “inhibition of [14C]TEA uptake into HEK-OCT1 cells at 5 μmol/L” value in experiment [2] is “OCT1-dependent TEA uptake was significantly reduced in the presence of the inhibitors prazosin and decynium22 (Fig. 4A)”. With `COc1cc2nc(N3CCN(C(=O)c4ccco4)CC3)nc(N)c2cc1OC` [prazosin], the “inhibition of [14C]TEA uptake into HEK-OCT1 cells” value in experiment [3] is “OCT1-dependent TEA uptake was significantly reduced in the presence of the inhibitors prazosin and decynium22 (Fig. 4A)”.
